Literature values in patent US9677978B2, “Fixative solution, for fixation and preservation of biological samples” (priority 2011, dated 2017).

Settings: in 20 months; commercial biocide solutions stabilized by antioxidants

Compound: N#CC(Br)(Br)C(N)=O [DBPNA, 2,2-Dibromo-3-nitrilopropionamide]
- degradation of DBPNA: < 10%
